As usually defined, the stoichiometry N is the number of molecules, sites or subunits per partner or assembly. As usually defined, the Km is the substrate concentration at which the rate is half of its maximum. By kcat is commonly meant the number of substrate molecules converted per active site and unit of time at saturation.

One series addresses T1, Eht1 (Saccharomyces cerevisiae, UniProt P38295).
T1 construct: 55 kDa
T1 sequence (P38295 1-451): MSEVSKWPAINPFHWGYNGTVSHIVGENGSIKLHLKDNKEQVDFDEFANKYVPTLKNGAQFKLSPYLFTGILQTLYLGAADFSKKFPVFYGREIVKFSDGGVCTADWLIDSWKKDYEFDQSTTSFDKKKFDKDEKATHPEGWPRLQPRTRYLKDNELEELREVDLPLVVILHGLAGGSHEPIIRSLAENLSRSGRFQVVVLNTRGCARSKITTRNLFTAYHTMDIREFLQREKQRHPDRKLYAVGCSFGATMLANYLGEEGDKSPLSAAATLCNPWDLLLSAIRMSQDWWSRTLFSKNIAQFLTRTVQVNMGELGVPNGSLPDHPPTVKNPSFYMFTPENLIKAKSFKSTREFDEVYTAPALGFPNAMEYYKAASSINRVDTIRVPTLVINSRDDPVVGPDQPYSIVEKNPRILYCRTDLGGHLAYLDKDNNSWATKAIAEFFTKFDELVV
Kind of series: coupled alpha-ketoglutarate dehydrogenase assay of CoA release (NADH). The format is biochemical. As to conditions: 0.125% ethanol, pH 7.4, 25 °C; assay insensitive to ethanol (thioesterase).

Series [1] concerns the molecule itself. In words: native gel or EMSA; blue native PAGE, 4–16% acrylamide Bis–Tris gels, Coomassie G-250 added to samples at 0.005%; purified Eht1 in FC12. In general terms: In EMSA bound probe runs differently from free probe, usually more slowly.
Series [2] deals with the molecule itself. Kind of series: SEC; Superdex 200 10/300 GL, 0.5 ml/min, in Column Buffer (50 mM sodium phosphate, pH 7.4, 150 mM NaCl, 5% glycerol, 0.1% FC-12); apparent size relative to molecular weight standards.
Substrate in series [3]: CCCCCCCC(=O)SCCNC(=O)CCNC(=O)[C@H](O)C(C)(C)COP(=O)(O)OP(=O)(O)OC[C@H]1O[C@@H](n2cnc3c(N)ncnc32)[C@H](O)[C@@H]1OP(=O)(O)O
Kind of series: coupled alpha-ketoglutarate dehydrogenase assay of CoA release (NADH). The format is biochemical, Saccharomyces cerevisiae. The settings on record: 0.125% ethanol, pH 7.4, 25 °C, assay insensitive to ethanol (thioesterase). An excerpt: coupled alpha-ketoglutarate dehydrogenase assay of CoA release (NADH) on Eht1 | the preferred substrate for Eht1 was octanoyl-CoA (largest kcat/KM)

“And” between values parts separate entries of the source, which are not always exact repeats. Identical values can stand only once.

Consider `CCCC(=O)SCCNC(=O)CCNC(=O)[C@H](O)C(C)(C)COP(=O)(O)OP(=O)(O)OC[C@H]1O[C@@H](n2cnc3c(N)ncnc32)[C@H](O)[C@@H]1OP(=O)(O)O` [C4, acyl-CoA of chain length C4], for which the KM entry on Eht1 is recorded as “acyl-CoA substrates of chain length C4–C14 followed classical Michaelis–Menten kinetics”. On the same count and under the same terms, the result for `CCCCCCCCCCCCCC(=O)SCCNC(=O)CCNC(=O)[C@H](O)C(C)(C)COP(=O)(O)OP(=O)(O)OC[C@H]1O[C@@H](n2cnc3c(N)ncnc32)[C@H](O)[C@@H]1OP(=O)(O)O` [C14, acyl-CoA of chain length C14] reads “acyl-CoA substrates of chain length C4–C14 followed classical Michaelis–Menten kinetics”; that for `CCCCCCCCCCCC(=O)SCCNC(=O)CCNC(=O)[C@H](O)C(C)(C)COP(=O)(O)OP(=O)(O)OC[C@H]1O[C@@H](n2cnc3c(N)ncnc32)[C@H](O)[C@@H]1OP(=O)(O)O` [acyl-CoA within chain lengths C4–C14 (C12)], “acyl-CoA substrates of chain length C4–C14 followed classical Michaelis–Menten kinetics”. The same measure, in the same setting: the result for `CCCCCCCCCC(=O)SCCNC(=O)CCNC(=O)[C@H](O)C(C)(C)COP(=O)(O)OP(=O)(O)OC[C@H]1O[C@@H](n2cnc3c(N)ncnc32)[C@H](O)[C@@H]1OP(=O)(O)O` [decanoyl-CoA] reads “acyl-CoA substrates of chain length C4–C14 followed classical Michaelis–Menten kinetics”.

B1: ethanol hexanoyl transferase 1 (Eht1) (enzyme, Saccharomyces cerevisiae, UniProt P38295 1-451, looked up)
chain: MSEVSKWPAINPFHWGYNGTVSHIVGENGSIKLHLKDNKEQVDFDEFANKYVPTLKNGAQFKLSPYLFTGILQTLYLGAADFSKKFPVFYGREIVKFSDGGVCTADWLIDSWKKDYEFDQSTTSFDKKKFDKDEKATHPEGWPRLQPRTRYLKDNELEELREVDLPLVVILHGLAGGSHEPIIRSLAENLSRSGRFQVVVLNTRGCARSKITTRNLFTAYHTMDIREFLQREKQRHPDRKLYAVGCSFGATMLANYLGEEGDKSPLSAAATLCNPWDLLLSAIRMSQDWWSRTLFSKNIAQFLTRTVQVNMGELGVPNGSLPDHPPTVKNPSFYMFTPENLIKAKSFKSTREFDEVYTAPALGFPNAMEYYKAASSINRVDTIRVPTLVINSRDDPVVGPDQPYSIVEKNPRILYCRTDLGGHLAYLDKDNNSWATKAIAEFFTKFDELVV
notes: Theoretical mass of the recombinant protein is printed as 55 kDa; also called recombinant Eht1; YBR177C gene product; source: yeast, plasmid pYES2CT, galactose-induced; purified from FC12-solubilized sedimenting membranes (Ni-NTA)
As for B1, the “stoichiometry N” value in series [1] is ~2 and ~4. Besides, the “stoichiometry N” value in series [2] was about 5. In series [3], the Km stood at 1.9 ± 0.6 µM and the kcat is 0.28 ± 0.02 s⁻¹.
